How the values were obtained:
RAW264.7 macrophages [1] = experiment: Cell accumulation experiment, transmitted light microscopy of cellular staining pattern; assay type: cell-based; details: for Inferred uptake: inferred from staining pattern after 72 hour incubation; for Observed cellular staining pattern (Notes): live cells, 72 hour incubation, 5 × 10^−6 M (2.5 × 10^−6 M for I); for Cellular staining relative to clofazimine: live macrophages, 72 h; for Staining in fixed cells: methanol-fixed cells incubated 72 h with compound (control)
Method: Cell Accumulation Experiments and Transmitted Light Microscopic Examination: […] After a 24 h incubation (37 °C, 5% CO2), cells were incubated with solution of clofazmine or its chemical derivatives (300 μL of 5 × 10^−6 m concentration; measured cell viability ranging from 85% to 97% for all compounds tested at this concentration; Figure 1) in DMEM (no phenol red; plus 1 × 10^−3 M sodium pyruvate and 5% FBS). For Compound “I,” 2.5 × 10^−6 M of compound solution in media was used for the RAW 264.7 macrophages incubation because of lower cell viability at higher concentrations (IC50 = (3.95 ± 0.11) × 10^−6 M). A solution of clofazmine or other chemical derivatives was made by a diluting stock solutions (2.5 × 10^−3 M in DMSO; 10 × 10^−3 M stock in DMSO were stored at −80 °C for further use) into DMEM with 5% FBS. […] The extracellular concentration of each compound in each well was maintained by daily replacement of the compound‐containing media. After 72 h of incubation with clofazmine or its derivatives, compound‐containing media were removed and cells were washed twice with media. Live cells in the chambered glasses were examined under inverted transmitted light microscopy (Nikon Eclipse Ti microscope) with a 40× objective and color camera. As a control experiment, fixed cells were also microscopically examined after incubation with the compounds. Cells were seeded on the chambered cover glasses at the density of 1.5 × 10^4 cells cm^−2 (RAW264.7 macrophages) or 2.5 × 10^4 cells cm^−2 (MDCK epithelial cells). After an overnight incubation (37 °C, 5% CO2), media was removed from the wells and cold methanol (−20 °C) was added to each well. After 30 s, remaining methanol was removed by washing with media with 5% FBS. Fixed cells were incubated (37 °C, 5% CO2) with clofazmine or derivatives (300 μL of 5 × 10^−6 M; 2.5 × 10^−6 M for I) in media with 5% FBS. After 72 h, fixed RAW264.7 or MDCK cells were washed with media and examined using the same transmitted microscopy conditions as the live cells.

RAW264.7 macrophages [2] = experiment: Linear diattenuation anisotropy microscopy (LC-PolScope) of intracellular inclusions; assay type: cell-based; details: 72 h, compared with clofazimine
Method: (§1) The optical design was built on a Nikon Eclipse Ti microscope equipped with the liquid crystal universal compensator consisting of a linear polarizer and a pair of liquid crystal devices. The LC compensator was part of the transillumination path and was used to illuminate the specimen with monochromatic, linearly polarized light of varying polarization orientation. There was no polarization analyzer present in the imaging path. Quantitative intensity images were recorded by a charge‐coupled device camera and a desktop computer calculated the average transmittance, the differential transmittance and the polarization orientation leading to maximum transmittance for each optically resolved picture element (pixel). Acquisition and processing steps were controlled using OpenPolScope plugins for the open source imaging programs ImageJ and Micro‐Manager (MMStudio version 1.4.15). With the combination of hardware and software, polarized light images were acquired at high sensitivity and high spatial resolution for measuring linear diattenuation.
(§2) Linear Diattenuation Microscopy Data Acquisition and Analysis: After RAW264.7 macrophages or MDCK epithelial cells were incubated with the compound in the chambered cover glasses for 72 h, at the same time of performing transmitted microscopic examination, cell specimens were examined under linear diattenuation microscopy using the Nikon Eclipse Ti microscope with 40×/0.75 NA objective and monochromatic light of two different center wavelengths, 546 and 623 nm (passband 30 nm). In the OpenPolScope software, Pol‐Acquisition and Pol‐Analyzer plugins (version 2.0) were used to capture, process, and analyze the attenuation images. Before imaging the samples, the setup was calibrated using a specially prepared slide featuring four small pieces of linear polarization filters. The transmission axes of the filters were oriented in steps of 45° providing a means to calibrate the LC universal compensator settings. After the calibration, a sample slide was inserted and first a sequence of polarized light images of a clear, fully transmitting sample area was recorded, followed by an image sequence featuring the cells under investigation. The images of the clear area were used to determine instrument factors which were needed for computing the average and the polarization dependent loss in transmittance in cellular components visible in the second image.10
(§3) Linear diattenuation is a material property that can occur in materials such as crystals, in which the light absorbing molecules are arranged with a preferred orientation. The molecular alignment creates principal axes in the material denoting polarization directions for which light is maximally and minimally transmitted. Diattenuation is the difference between maximal (T max) and minimal (T min) transmittance, divided by their sum (Equation (1)): (1) Diattenuation=Tmax‐Tmin/Tmax+Tmin
(§4) To simultaneously measure the attenuation of many crystals with arbitrary orientations, we developed algorithms based on four specimen images, each recorded using light of a different polarization orientation: 0°, 45°, 90°, and 135°.10 The four raw images were used to calculate the average and differential transmittance and the orientation of maximum transmittance in every resolved image pixel. To isolate and analyze quantitative data of the objects (crystals), the anisotropy or maximum transmittance axis orientation image file opened in ImageJ was inverted (Ctrl + Shift + I) and thresholded using ImageJ's default automatic method (“Binary” → “Convert to Mask”). By using the ImageJ's algorithm, “Analyze Particles,” data of anisotropy or maximum transmittance axis orientation of objects in images could be obtained automatically. Diattenuation ratios were calculated by dividing anisotropy at 623 nm by that at 546 nm.

MDCK epithelial cells = experiment: as above; assay type: cell-based, Canine; details: 72 h, compared with clofazimine
Method: as §1, §2, §3, §4

RAW264.7 macrophages [3] = experiment: Cell associated mass measurements (bioaccumulation, pmole/cell); assay type: cell-based; details: 72 h incubation, normalized by number of cells
Method: Cell Associated Mass Measurements: […] After an overnight incubation (37 °C, 5% CO2), cells were incubated with 100 μL of the media (DMEM with 5% FBS) containing 5 × 10^−6 M clofazmine or its chemical derivatives (2.5 × 10^−6 M of Compound “I”). Media containing each compound was replaced every day during the 72 h incubation. After the incubation, media was removed and cells were washed with Hank's balanced salt solution (HBSS) buffer (No. 14025; Invitrogen) twice. RAW264.7 macrophage cells in buffer were scraped and MDCK epithelial cells were exposed to Trypsin‐EDTA solution for detachment from the plates for cell number counting and quantification of cell‐associated masses. After centrifugation (650 × g), supernatant was removed and cell pellets were resuspended in 0.1 M citric acid/0.1 M trisodium citrate buffer (pH 5) for cell counting as previously reported.7 Equal numbers of cells in 100 μL in buffer were transferred to 96 well plates and 100 μL of detergent (ATCC, 30‐1010K) was added into wells for cell lysis. Chemical absorbance from each well was measured by the UV–vis microplate reader (Synergy 2, BioTek Instruments, Winooski, VT) at 490 nm wavelength and cell‐associated mass of each compound was calculated by a standard curve generated separately using the same media and presented as pmole/cell by normalizing the amount of chemical in each cell population sample by the number of cells in each sample.

Inferred uptake (RAW264.7 macrophages [1])	Accumulation in macrophages (RAW264.7 macrophages [3])	SMILES	Observed cellular staining pattern (Notes) (RAW264.7 macrophages [1])	Cellular staining relative to clofazimine (RAW264.7 macrophages [1])	Staining in fixed cells (RAW264.7 macrophages [1])	Diattenuation anisotropy of intracellular inclusions (RAW264.7 macrophages [2])	Diattenuation anisotropy of intracellular inclusions (MDCK epithelial cells)
Slow		COc1ccc(Nc2cc3nc4ccccc4n(-c4ccc(OC)cc4)c-3cc2=NC(C)C)cc1 [A]	did not exhibit any intracellular staining pattern				
Very slow		CC(C)N=c1cc2n(-c3ccc(C#N)cc3)c3ccccc3nc-2cc1Nc1ccc(C#N)cc1 [B]	formed large extracellular crystals. No intracellular staining pattern				
Slow		CC(C)N=c1cc2n(-c3ccc(-c4ccccc4)cc3)c3ccccc3nc-2cc1Nc1ccc(-c2ccccc2)cc1 [C]	Very faint, brown perinuclear staining pattern observed across all cells				
Very slow		CC(C)N=c1cc2n(-c3ccc(C(F)(F)F)cc3)c3ccccc3nc-2cc1Nc1ccc(C(F)(F)F)cc1 [D]	No intracellular staining pattern observed. Small percentage of cells with orange crystals				
Slow		CC(C)N=c1cc2n(-c3ccc(F)cc3)c3ccccc3nc-2cc1Nc1ccc(F)cc1 [E]	Very faint, brown perinuclear staining pattern observed across all cells				
Moderate		COCCN=c1cc2n(-c3ccc(Cl)cc3)c3ccccc3nc-2cc1Nc1ccc(Cl)cc1 [H]	Brown staining associated with vesicles/membranes	comparable in morphology and intensity to those of clofazimine	Fixed cells also exhibited staining		
Slow		CCCCN=c1cc2n(-c3ccc(Cl)cc3)c3ccccc3nc-2cc1Nc1ccc(Cl)cc1 [K]	Very faint, brown perinuclear staining pattern				
Good		NC(=O)CCN=c1cc2n(-c3ccc(Cl)cc3)c3ccccc3nc-2cc1Nc1ccc(Cl)cc1 [L]	Small brown inclusions present in live cells		absent in fixed cells		
Good		COc1ccc2[nH]cc(CCN=c3cc4n(-c5ccc(Cl)cc5)c5ccccc5nc-4cc3Nc3ccc(Cl)cc3)c2c1 [M]	Orange-brown or purple inclusions present in live cells	comparable in morphology and intensity to those of clofazimine	Staining not observed in fixed cells		
Moderate		Clc1ccc(Nc2cc3nc4ccccc4n(-c4ccc(Cl)cc4)c-3cc2=NCCN2CCOCC2)cc1 [N]	Faint orange staining pattern associated with perinuclear cytoplasmic vesicles		Staining not observed in fixed cells		
Good		Oc1ccc(CCN=c2cc3n(-c4ccc(Cl)cc4)c4ccccc4nc-3cc2Nc2ccc(Cl)cc2)cc1O [O]	Most of cells have shown faint orange colored vesicles		Staining not observed in fixed cells		
Excellent	greatest accumulation	Oc1ccc(CCN=c2cc3n(-c4ccc(Cl)cc4)c4ccccc4nc-3cc2Nc2ccc(Cl)cc2)cc1 [Q]	Purple-black dense cytoplasmic inclusions in live cells	more prominent staining patterns	absent in fixed cells	higher diattenuation anisotropy	higher diattenuation anisotropy
Good		C[C@H](N=c1cc2n(-c3ccc(Cl)cc3)c3ccccc3nc-2cc1Nc1ccc(Cl)cc1)c1ccccc1 [R]	Orange-brown staining pattern associated with perinuclear cytoplasmic vesicles in live cells		No staining found in Fixed cells	did not yield a measurable, diattenuation anisotropy signal	did not yield a measurable, diattenuation anisotropy signal
Good	greatest accumulation	CC(C)C(CO)N=c1cc2n(-c3ccc(Cl)cc3)c3ccccc3nc-2cc1Nc1ccc(Cl)cc1 (stereo not shown) [V]	Brown crystal-like inclusions appeared in live cells	prominent cellular staining	Staining not observed in fixed cells	even higher anisotropy	only in macrophages
Good	greatest accumulation	CC(C)[C@H](CO)N=c1cc2n(-c3ccc(Cl)cc3)c3ccccc3nc-2cc1Nc1ccc(Cl)cc1 [W]	Brown crystal-like inclusions are shown in live cells	prominent cellular staining	absent in fixed cells	even higher anisotropy	only in macrophages
